According to the supplement of paper PMC13380429:

Assays:
Vero E6 [1] = assay: drug sensitivity score (DSS) for viability; higher = more toxic; extreme values may be limits of the assay; conditions: 72 h
Caco-2 [2] = assay: as above; conditions: 72 h
U2OS [3] = assay: as above; conditions: 72 h
HepG2 [4] = assay: as above; conditions: 72 h
Calu-3 [5] = assay: as above; conditions: 72 h
Vero E6 [6] = assay: cell viability relative to DMSO; higher = less toxic; conditions: 72 h
Caco-2 [7] = assay: as above; conditions: 72 h
U2OS [8] = assay: as above; conditions: 72 h
HepG2 [9] = assay: as above; conditions: 72 h
Calu-3 [10] = assay: as above; conditions: 72 h
[11] = tested on: A549-ACE2 infected with SARS-CoV-2; assay: morphology score (similarity to uninfected cells); higher = more like uninfected cells; conditions: 24 h
A549-ACE2 [12] = assay: drug-induced phospholipidosis relative to tamoxifen; higher = more phospholipidosis
Vero E6 [13] = assay: relative viability EC50 (midpoint between 100% and the lowest measured viability); higher = less toxic; conditions: 72 h
Caco-2 [14] = assay: as above; conditions: 72 h
U2OS [15] = assay: as above; conditions: 72 h
Calu-3 [16] = assay: as above; conditions: 72 h
[17] = tested on: A549-ACE2 infected with SARS-CoV-2; assay: cell count relative to DMSO; higher = less toxic; conditions: 24 h
[18] = tested on: A549-ACE2 infected with SARS-CoV-2; assay: SARS-CoV-2 infection rate relative to DMSO; higher = more infection; conditions: 24 h
HepG2 [19] = assay: relative viability EC50 (midpoint between 100% and the lowest measured viability); higher = less toxic; conditions: 72 h
A549-ACE2 [20] = assay: phospholipidosis EC50; higher = less potent phospholipidosis inducer

CN(NC(=O)CC(=O)NN(C)C(=S)c1ccccc1)C(=S)c1ccccc1 [elesclomol]
Conditions	drug sensitivity score	relative viability EC50 [µM]
Caco-2 [2]	32.2	–
Caco-2 [14]	–	0.0174
Calu-3 [5]	0	–
Calu-3 [16]	–	> 10
HepG2 [4]	9.7	–
U2OS [3]	21.4	–
U2OS [15]	–	0.1
Vero E6 [1]	8.7	–
Vero E6 [13]	–	0.637

Conditions	SARS-CoV-2 infection rate, [18] [%]	cell count, [17] [%]	cell viability, Caco-2 [7] [%]	cell viability, Calu-3 [10] [%]	cell viability, HepG2 [9] [%]	cell viability, U2OS [8] [%]	cell viability, Vero E6 [6] [%]	morphology score, [11]
1 nM	–	–	93.9	107	93.4	89.6	91.5	–
10 nM	–	–	74.4	83.6	99.4	89.5	96.7	–
100 nM	–	–	7	68.7	69.2	56.9	69.1	–
0.3 µM	93	93	–	–	–	–	–	0.17
1000 nM	–	–	9.7	29.6	66.7	7.8	41.7	–
3 µM	68	104	–	–	–	–	–	0.63
10000 nM	–	–	4.1	99.4	82.1	90.6	86	–
10 µM	99	107	–	–	–	–	–	0.52
30 µM	86	100	–	–	–	–	–	0.39

A549-ACE2 [12]
Conditions	drug-induced phospholipidosis [%]
0.3 µM, 24 h	12.3
0.833333 µM, 24 h	9.68
3.33333 µM, 24 h	7.09
6.66667 µM, 24 h	7.28
10 µM, 24 h	9.51
30 µM, 24 h	2.54
30 µM, 48 h	6.18
30 µM, 72 h	10

CC(C)COc1ccc(CNC(=O)N(Cc2ccc(F)cc2)C2CCN(C)CC2)cc1 [pimavanserin]
Conditions	drug sensitivity score	relative viability EC50 [µM]
Caco-2 [2]	0.1	–
Caco-2 [14]	–	> 10
Calu-3 [5]	0.1	–
Calu-3 [16]	–	> 10
HepG2 [4]	0.1	–
HepG2 [19]	–	> 10
U2OS [3]	0	–
U2OS [15]	–	> 10
Vero E6 [1]	0	–
Vero E6 [13]	–	> 10

Conditions	SARS-CoV-2 infection rate, [18] [%]	cell count, [17] [%]	cell viability, Caco-2 [7] [%]	cell viability, Calu-3 [10] [%]	cell viability, HepG2 [9] [%]	cell viability, U2OS [8] [%]	cell viability, Vero E6 [6] [%]	morphology score, [11]
1 nM	–	–	105	100	102	99.4	101	–
10 nM	–	–	95.7	97	104	99.2	101	–
100 nM	–	–	105	95.1	104	92.2	108	–
0.3 µM	100	101	–	–	–	–	–	-0.07
1000 nM	–	–	110	95.2	103	99.2	99.4	–
10000 nM	–	–	85.7	86.2	86.2	92	98.4	–

A549-ACE2 [12], 0.3 µM
Conditions	drug-induced phospholipidosis [%]
24 h	4.68
48 h	2.24
72 h	1.32

CCOC(=O)c1c(C)[nH]c2ccc3c(c12)CN1CCc2cc(OC)ccc2C1O3 (centres undefined)
Conditions	drug sensitivity score	relative viability EC50 [µM]
Caco-2 [2]	3.6	–
Calu-3 [5]	2.6	–
HepG2 [4]	7.1	–
HepG2 [19]	–	1.4
U2OS [3]	2.2	–
Vero E6 [1]	1.1	–
Vero E6 [13]	–	> 10

Conditions	SARS-CoV-2 infection rate [%]	cell count [%]	cell viability [%]	morphology score	phospholipidosis EC50 [µM]
A549-ACE2 [20], 24 h	–	–	–	–	9.3
Caco-2 [7], 1 nM	–	–	103	–	–
Caco-2 [7], 10 nM	–	–	98.8	–	–
Caco-2 [7], 100 nM	–	–	95.8	–	–
Caco-2 [7], 1000 nM	–	–	93.1	–	–
Caco-2 [7], 10000 nM	–	–	53.6	–	–
Calu-3 [10], 1 nM	–	–	102	–	–
Calu-3 [10], 10 nM	–	–	101	–	–
Calu-3 [10], 100 nM	–	–	109	–	–
Calu-3 [10], 1000 nM	–	–	98.4	–	–
Calu-3 [10], 10000 nM	–	–	53.6	–	–
HepG2 [9], 1 nM	–	–	93.2	–	–
HepG2 [9], 10 nM	–	–	92.8	–	–
HepG2 [9], 100 nM	–	–	97.2	–	–
HepG2 [9], 1000 nM	–	–	78.4	–	–
HepG2 [9], 10000 nM	–	–	29	–	–
U2OS [8], 1 nM	–	–	97.3	–	–
U2OS [8], 10 nM	–	–	100	–	–
U2OS [8], 100 nM	–	–	99.8	–	–
U2OS [8], 1000 nM	–	–	98.3	–	–
U2OS [8], 10000 nM	–	–	61	–	–
Vero E6 [6], 1 nM	–	–	102	–	–
Vero E6 [6], 10 nM	–	–	104	–	–
Vero E6 [6], 100 nM	–	–	92	–	–
Vero E6 [6], 1000 nM	–	–	91.5	–	–
Vero E6 [6], 10000 nM	–	–	80.1	–	–
[11], 0.3 µM	–	–	–	-0.2	–
[11], 3 µM	–	–	–	0.69	–
[11], 10 µM	–	–	–	0.83	–
[11], 30 µM	–	–	–	0.42	–
[17], 0.3 µM	–	98	–	–	–
[17], 3 µM	–	112	–	–	–
[17], 10 µM	–	114	–	–	–
[17], 30 µM	–	92	–	–	–
[18], 0.3 µM	105	–	–	–	–
[18], 3 µM	59	–	–	–	–
[18], 10 µM	25	–	–	–	–
[18], 30 µM	26	–	–	–	–

drug-induced phospholipidosis [%], A549-ACE2 [12]
Conditions	0.3 µM	0.833333 µM	3.33333 µM	6.66667 µM	10 µM	30 µM
24 h	2.45	1.52	13.8	23.7	49.6	77.6
48 h	1.49	1.91	7.41	9.35	10.9	99.9
72 h	3.49	0.0297	4.37	8.63	10.6	83.4

Cc1[nH]c2ccccc2c1CCNC(=O)c1cccs1 [CK-636]
Conditions	drug sensitivity score	relative viability EC50 [µM]
Caco-2 [2]	0.3	–
Caco-2 [14]	–	> 10
Calu-3 [5]	0	–
Calu-3 [16]	–	> 10
HepG2 [4]	0	–
HepG2 [19]	–	> 10
U2OS [3]	0	–
U2OS [15]	–	> 10
Vero E6 [1]	0	–
Vero E6 [13]	–	> 10

Conditions	SARS-CoV-2 infection rate, [18] [%]	cell count, [17] [%]	cell viability, Caco-2 [7] [%]	cell viability, Calu-3 [10] [%]	cell viability, HepG2 [9] [%]	cell viability, U2OS [8] [%]	cell viability, Vero E6 [6] [%]	morphology score, [11]
1 nM	–	–	98.9	100	99.8	94	104	–
10 nM	–	–	99.8	90.9	104	101	100	–
100 nM	–	–	91.4	91.8	102	94.9	103	–
0.3 µM	101	98	–	–	–	–	–	-0.06
1000 nM	–	–	99.6	99.7	99.8	100	97	–
3 µM	103	99	–	–	–	–	–	-0.01
10000 nM	–	–	84.1	93.2	104	93.2	99.3	–
10 µM	100	101	–	–	–	–	–	0.14
30 µM	100	97	–	–	–	–	–	0.06

drug-induced phospholipidosis [%], A549-ACE2 [12]
Conditions	0.3 µM	0.833333 µM	3.33333 µM	6.66667 µM	10 µM	30 µM
24 h	6.27	1.27	2.41	2.27	5.29	11.7
48 h	3.87	-1.04	2.68	4.83	2.67	12.2
72 h	1.44	-4.13	1.2	4.21	4.6	12.1

O=C(OC(C(F)(F)F)C(F)(F)F)N1CCN(Cc2cccc(Oc3ccccc3)c2)CC1 [JW-642]
Conditions	drug sensitivity score	relative viability EC50 [µM]
Caco-2 [2]	0	–
Caco-2 [14]	–	> 10
HepG2 [4]	0	–
HepG2 [19]	–	> 10
U2OS [3]	0	–
U2OS [15]	–	> 10
Vero E6 [1]	0	–
Vero E6 [13]	–	> 10

Conditions	SARS-CoV-2 infection rate [%]	cell count [%]	cell viability [%]	morphology score	phospholipidosis EC50 [µM]
A549-ACE2 [20], 24 h	–	–	–	–	0.723
A549-ACE2 [20], 48 h	–	–	–	–	1.17
A549-ACE2 [20], 72 h	–	–	–	–	1.22
Caco-2 [7], 1 nM	–	–	98.3	–	–
Caco-2 [7], 10 nM	–	–	106	–	–
Caco-2 [7], 100 nM	–	–	99.4	–	–
Caco-2 [7], 1000 nM	–	–	100	–	–
Caco-2 [7], 10000 nM	–	–	92.4	–	–
HepG2 [9], 1 nM	–	–	100	–	–
HepG2 [9], 10 nM	–	–	116	–	–
HepG2 [9], 100 nM	–	–	87.7	–	–
HepG2 [9], 1000 nM	–	–	109	–	–
HepG2 [9], 10000 nM	–	–	101	–	–
U2OS [8], 1 nM	–	–	101	–	–
U2OS [8], 10 nM	–	–	98.1	–	–
U2OS [8], 100 nM	–	–	102	–	–
U2OS [8], 1000 nM	–	–	95.7	–	–
U2OS [8], 10000 nM	–	–	97.6	–	–
Vero E6 [6], 1 nM	–	–	93.1	–	–
Vero E6 [6], 10 nM	–	–	106	–	–
Vero E6 [6], 100 nM	–	–	96.3	–	–
Vero E6 [6], 1000 nM	–	–	90.5	–	–
Vero E6 [6], 10000 nM	–	–	102	–	–
[11], 0.3 µM	–	–	–	-0.02	–
[11], 3 µM	–	–	–	0.31	–
[11], 10 µM	–	–	–	-0.04	–
[11], 30 µM	–	–	–	0.29	–
[17], 0.3 µM	–	103	–	–	–
[17], 3 µM	–	111	–	–	–
[17], 10 µM	–	105	–	–	–
[17], 30 µM	–	105	–	–	–
[18], 0.3 µM	100	–	–	–	–
[18], 3 µM	88	–	–	–	–
[18], 10 µM	99	–	–	–	–
[18], 30 µM	90	–	–	–	–

drug-induced phospholipidosis [%], A549-ACE2 [12]
Conditions	0.3 µM	0.833333 µM	3.33333 µM	6.66667 µM	10 µM	30 µM
24 h	6.56	21.9	39.6	46.5	46.2	54.6
48 h	5.07	23.9	54.4	65.2	57.8	68.1
72 h	4.87	23.8	62.1	70.4	64.8	73.8
